Tests used:
Assay type in all cases: cell-based
[1] = target: T1, OR10J5 olfactory receptor (Homo sapiens, UniProt Q8NHC4); assay: Dose-response confirmation of enhancer candidates, alone and with EC20 LYRAL®; settings: response to LYRAL® raised beyond EC20 without measurable intrinsic activity
T1 construct: Flag; Rho (rhodopsin-derived tag); expressed in transfected cells
T1 sequence (Q8NHC4 1-309): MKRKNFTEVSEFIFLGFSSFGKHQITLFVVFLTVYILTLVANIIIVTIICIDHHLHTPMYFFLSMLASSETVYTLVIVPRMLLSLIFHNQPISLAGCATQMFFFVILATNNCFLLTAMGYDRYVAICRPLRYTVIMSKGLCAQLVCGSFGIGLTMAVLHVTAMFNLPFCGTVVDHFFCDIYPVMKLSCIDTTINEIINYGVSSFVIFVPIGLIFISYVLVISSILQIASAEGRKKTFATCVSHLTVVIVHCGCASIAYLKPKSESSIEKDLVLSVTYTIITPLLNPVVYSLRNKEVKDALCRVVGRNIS
Method: (§1) A dose response curve showing the activation of OR10J5 in response to the floral muguet compound 3-(4-hydroxy-4-methylpentyl)cyclohex-3-ene-1-carbaldehyde, 4-(4-hydroxy-4-methylpentyl)cyclohex-3-ene-1-carbaldehyde or a mixture thereof (sold under the tradename LYRAL®, hereinafter referred to as “LYRAL®”) is shown in FIG. 1. Using a cell-based assay, OR10J5 activity was tested in a HEK293T cell line wherein the endogenous chaperone RTP1 gene has been activated and the odorant receptor chaperone was expressed according to the methods disclosed in International Patent Application Publication No. WO2016/201153 A1. The Flag-Rho-tagged receptor was co-transfected with the olfactory canonical G-protein Golf and was exposed to a binary mixture of a single concentration of LYRAL® and a test compound.
(§2) A library of volatile compounds was used to create binary mixtures of each compound with LYRAL® at approximately EC20, a concentration eliciting only approximately 20% of full activity level of OR10J5 by itself. An activation cell-based assay was used for the initial enhancer candidate identification as disclosed in WO2019122236. Single binary mixture-induced receptor activity was detected by measuring the cAMP increase in the cytosol using an HTRF (Homogenous Time-Resolved Fluorescence unit) based kit (CisBio, cAMP dynamic 2 kit, 62AM4PEJ).
The 37 candidates remaining in Table 2 were identified and were tested in two parallel dose-response experiments to confirm the true enhancement properties of the potential candidates. First, a dose-response of each individual candidate was performed to determine if it was an agonist by itself. Second, the same candidate dose-response curve in the presence of EC20 LYRAL® concentration (generating 20% activity on OR10J5) was assessed for activity level increase.

OR10J5 [2] = target: T2, OR10J5 (Homo sapiens, UniProt Q8NHC4); assay: LYRAL® dose-response with serial enhancer concentrations, allosteric EC50 shift model; settings: for α (cooperativity factor): enhancer 0 to 600 μM, allosteric EC50 shift equation (Prism7), α>1 indicates positive allosteric modulation; for Kb: read-out: KB (equilibrium dissociation constant of the enhancer)
T2 construct: Flag; Rho (rhodopsin-derived tag); expressed in transfected cells
T2 sequence (Q8NHC4 1-309): T1 sequence (Q8NHC4 1-309)
Method: Functional dose-response experiments were performed to reveal the allosteric nature of the interaction between 3-(1,3-benzodioxol-5-yl)-2-methylpropanal, 3-(4-methylcyclohex-3-en-1-yl)butanal, 2,6-dimethylhept-5-enal and heptanal and OR10J5. The level of enhancement of OR10J5's activation was evaluated at distinct concentrations of each enhancer. Using the same cell-based assay described earlier, dose response curves of OR10J5 to LYRAL® in the presence of serial concentrations of the enhancers spanning from 0 to 600 μM were performed, see FIG. 5. The curves were obtained by applying the simplified Allosteric EC50 shift effect equation (available in Prism7) derived from the ternary complex interaction model. The enhancement levels recorded were not linearly dependent on the concentration of the enhancer, and the following key parameters values for α (the cooperativity factor) and KB (the equilibrium dissociation constant of the enhancer) were obtained from the model for each enhancer: 3-(1,3-benzodioxol-5-yl)-2-methylpropanal, α=6.3 and KB=10 μM; 3-(4-methylcyclohex-3-en-1-yl)butanal, α=7.5 and KB=15 μM; 2,6-dimethylhept-5-enal, α=4.1 and KB=16 μM; and heptanal; α=3.2 and KB=51 μM. α>1 is indicative of positive allosteric modulation.

OR10J5 [3] = target: T2, OR10J5; assay: (+−)-2,5-dimethyl-2-indanmethanol dose-response with a steady concentration of test compound
Method: OR10J5 activity enhancement was tested with an additional agonist and with one of the test compounds and conditions described in the Examples above. Dose response curves to (+−)-2,5-dimethyl-2-indanmethanol was obtained in the presence of a steady concentration of the test compound and compared to a dose-response curve of the agonist alone. The resulting enhancement was quantified by means of EC50-fold shift (potency increase) and the efficacy span ratio (efficacy increase) as described above.

[4] = target: T1, OR10J5 olfactory receptor; assay: Inhibition of LYRAL® (EC80)-induced receptor activity, screen and dose-response; settings: dose-response in the presence of EC80 LYRAL®
Method: Using the same cell-based assay described herein, OR10J5 activity inhibition was tested with binary mixtures of LYRAL® and a test compound. Volatile compounds were used to create binary mixtures of each compound with LYRAL® at approximately EC80, a concentration eliciting approximately 80% of full activity level of OR10J5 by itself. An activation cell-based assay was used for the initial inhibitor candidate identification as disclosed in WO2019101813.
The binary mixtures were created by mixing a LYRAL® stock solution with a stock solution of each test compound to a final concentration XXX and 300 μM, respectively. Stock solutions were made of compounds dissolved in pure DMSO. Each mixture was presented to a cell line expressing the OR10J5 olfactory receptor. Similar to the enhancement screening conditions, the final concentration of DMSO in each binary mixture was 0.1%, and had no visible effect on the cells. The resulting activation was measured and compared to LYRAL® alone (defining the activity baseline of the assay, ˜EC80). […] The quality of the HTS process was determined and the window (activity range between EC80 and the DMSO baseline) variability and signal reliability were assessed by calculating the Z′ value of each plate.
Candidate inhibitors identified were tested in a dose-response inhibition experiments to confirm the inhibition properties of the potential candidates. The dose-response curve in the presence of EC80 LYRAL® concentration (generating 80% activity on OR10J5) was assessed for dose-dependent activity level decrease. […] Both potency and efficacy of the confirmed inhibitors were evaluated by calculating their half-maximal inhibition concentration (IC50) relative to EC80 LYRAL and the amount of inhibition (Span), respectively. The IC50 values indicate the inhibition level with respect to the potency. The Span values indicate the inhibition level with respect to the inhibition efficacy. The IC50 values are used to rank order the compounds from strongest to weakest inhibitors of OR10J5 (FIG. 9a-d).

OR10J5 [5] = target: T2, OR10J5; assay: LYRAL® dose-response with a steady concentration of test compound (EC50-fold shift); settings: LYRAL® + steady concentration of compound vs LYRAL® alone
Method: as §1
(§3) LYRAL® enhancement specificity was tested on compounds that were structurally similar to enhancers identified. Dose response curves to LYRAL® were obtained in the presence of a steady concentration of a test compound and compared to a dose-response curve of LYRAL® alone. The resulting enhancement was quantified by means of EC50-fold shift (potency increase) and the efficacy span ratio (efficacy increase).
The EC50-fold shift was obtained by dividing the EC50 of LYRAL®+compound by the reference EC50 of LYRAL® alone. […]

Olfr16 = target: T3, Olfr16 (Mus musculus, UniProt Q62007); assay: as above; settings: Olfr16 (mouse ortholog); LYRAL® + steady concentration of compound vs LYRAL® alone
T3 construct: expressed in transfected cells
T3 sequence (Q62007 1-309): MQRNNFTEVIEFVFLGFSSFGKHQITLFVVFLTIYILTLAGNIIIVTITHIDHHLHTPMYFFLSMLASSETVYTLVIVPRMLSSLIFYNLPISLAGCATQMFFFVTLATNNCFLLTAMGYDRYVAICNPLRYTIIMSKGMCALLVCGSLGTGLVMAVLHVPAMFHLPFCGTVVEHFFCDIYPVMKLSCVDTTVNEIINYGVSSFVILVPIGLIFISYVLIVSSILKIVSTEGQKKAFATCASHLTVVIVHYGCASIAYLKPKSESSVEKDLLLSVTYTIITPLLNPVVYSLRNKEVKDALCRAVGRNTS
Method: as §3
The EC50-fold shift was obtained by dividing the EC50 of LYRAL®+compound by the reference EC50 of LYRAL® alone. The span ratio was obtained by dividing the span of LYRAL®+compound by the reference span of LYRAL® alone.

[6] = target: T1, OR10J5 olfactory receptor; assay: Single-point binary mixture enhancement screen (LYRAL® at about EC20 + test compound), cAMP HTRF; settings: binary mixture of 4.6 μM LYRAL® and 300 μM test compound, HEK293T
Method: A dose response curve showing the activation of OR10J5 in response to the floral muguet compound 3-(4-hydroxy-4-methylpentyl)cyclohex-3-ene-1-carbaldehyde, 4-(4-hydroxy-4-methylpentyl)cyclohex-3-ene-1-carbaldehyde or a mixture thereof (sold under the tradename LYRAL®, hereinafter referred to as “LYRAL®”) is shown in FIG. 1. Using a cell-based assay, OR10J5 activity was tested in a HEK293T cell line wherein the endogenous chaperone RTP1 gene has been activated and the odorant receptor chaperone was expressed according to the methods disclosed in International Patent Application Publication No. WO2016/201153 A1. […]
as §2, with “An activation cell-based assay was used for the initial enhancer candidate identification as disclosed in WO2019122236.” left out, “62AM4PEJ). […]” for “62AM4PEJ).”
The resulting activation was then measured and compared to LYRAL® alone (defining the baseline of the enhancement assay). The quality of the HTS process was determined and the window variability and signal reliability were assessed by calculating the Z′ value of each plate. […]

In the case of “3,5,6-Trimethyl-3-Cyclohexene-1-Carbaldehyde + 2,4,6-Trimethyl-3-Cyclohexene-1-Carbaldehyde”, the “enhancement of OR10J5 LYRAL® activation (true enhancer)” value (“enhancement” below) [1] is reported as “potent enhancement”.

For `CC(C)=CCCC(C)C=O` (racemic) [2,6-dimethylhept-5-enal], the “enhancement” value [1] was “potent enhancement”, the “α (cooperativity factor)” value (OR10J5 [2]) was 4.1 and the Kb (OR10J5 [2]) was 16 µM.

In the case of `Cc1ccc(CC(C)C=O)cc1` (racemic) [2-methyl-3-(4-methylphenyl)propanal], the “enhancement” value [1] is reported as “potent enhancement”.

In the case of `COC(C)(C)CCCC(C)C=O` (racemic) [6-methoxy-2,6-dimethylheptanal], the “enhancement” value [1] is reported as “potent enhancement”.

In the case of `Cc1ccc2c(c1)CC(C)(CO)C2` (racemic) [(+−)-2,5-dimethyl-2-indanmethanol, reference compound], the “agonist character at OR10J5” value (OR10J5 [3]) is reported as “partial agonist”.

In the case of `CCOC(=O)C(=O)C(C)CC` (racemic) [(+−)-ethyl 3-methyl-2-oxopentanoate], the “inhibition of the OR10J5 response to LYRAL®” value (“inhibition” below) [4] is reported as “decreased the response”.

With `CC1=CC(C)C(C=O)C(C)C1` (centres unmarked) [2,4,6-trimethyl-3-cyclohexene-1-carbaldehyde] the “enhancement” value [1] was “potent enhancement”.

`CC(C=O)c1ccccc1` (centres unmarked) [2-phenylpropanal] was tested, and the “enhancement” value [1] was “potent enhancement”.

With `Cc1cccc(C=O)c1` [3-methylbenzaldehyde] the “enhancement” value [1] was “potent enhancement”.

For `CC(C)c1ccc(C=O)cc1` [4-Propan-2-ylbenzaldehyde], the “enhancement” value [1] was “potent enhancement”.

In the case of `CCc1ccc(C=O)cc1` [4-ethylbenzaldehyde], the “enhancement” value [1] is reported as “potent enhancement”.

In the case of `CCCc1ccc2c(c1)OCC(=O)CO2` [7-propyl-2H,4H-1,5-benzodioxepin-3-one], the “inhibition” value [4] is reported as “decreased the response”.

With `CC(C)=CCC[C@@H](C)CC=O` [(3R)-3,7-dimethyloct-6-enal] the “enhancement” value [1] was “potent enhancement”.

`C/C=C/C=O` [(E)-but-2-enal] was tested, and the “enhancement” value [1] was “potent enhancement”.

With `CCCCCCC/C=C/C=O` [(E)-dec-2-enal] the “enhancement” value [1] was “potent enhancement”.

For `CCCCCC/C=C/C=O` [(E)-non-2-enal], the “enhancement” value [1] was “potent enhancement”.

For `C=C1CC[C@@H]2O[C@]2(C)CC[C@@H]2[C@@H]1CC2(C)C` [(−)-(1R,4R,6S,10S)-4,12,12-trimethyl-9-methylene-5-oxatricyclo[8.2.0.0^4,6]dodecane], the “inhibition” value [4] was “decreased the response”.

For `O=Cc1ccccc1` [benzaldehyde], the “enhancement” value [1] was “potent enhancement”.

With `O=Cc1ccc2c(c1)OCO2` [benzo[d][1,3]dioxole-5-carbaldehyde, reference compound] the “EC50 fold shift of LYRAL® (potency increase)” value (OR10J5 [5]) was 1.8 fold, the “EC50 fold shift of LYRAL® (potency increase)” value (Olfr16) was 1.5 fold and the “EC50 fold shift of (+−)-2,5-dimethyl-2-indanmethanol” value (OR10J5 [3]; OR10J5, agonist + steady concentration of compound vs agonist alone) was 2.0 fold.

With `C[C@@H]1C/C=C\CCCCCCCCCC(=O)C1` [compound 2] the “OR10J5 olfactory receptor agonists among screen hits” value [6] was “agonists”.

With `COC(=O)c1ccccc1/N=C/c1ccccc1` [compound 15] the “OR10J5 olfactory receptor agonists among screen hits” value [6] was “agonists”.

In the case of `CCCCCCC=O` [heptanal], the “enhancement” value [1] is reported as “potent enhancement”, the “α (cooperativity factor)” value (OR10J5 [2]) is reported as 3.2 and the Kb (OR10J5 [2]) is reported as 51 µM.

`CCCCCC=O` [hexanal] was tested, and the “enhancement” value [1] was “potent enhancement”.

With `CCCCCCCC=O` [octanal] the “enhancement” value [1] was “potent enhancement”.

For `CC1=CCCC2(C)OC2CCC(C)=CCC1` (centres unmarked) [trimethyl-13-oxabicyclo-[10.1.0]-trideca-4,8-diene], the “inhibition” value [4] was “decreased the response”.

“(+−)-3-(4-Methyl-3-penten-1-yl)-3-cyclohexene-1-carbaldehyde + (+−)-4-(4-Methyl-3-penten-1-yl)-3-cyclohexene-1-carbaldehyde” was tested, and the “enhancement” value [1] was “potent enhancement”.

Source: patent US11951197B2, “Use of volatile compounds to modulate the perception of floral muguet” (FIRMENICH SA, priority 2018, dated 2024)
